Measurements reported in publication PMC5218480 (PLoS ONE, 2017).

System: MV-4-11 cells
Test: Gene expression microarray analysis (Affymetrix PrimeView) and GSEA
Format: cell-based, human
Design: RFU PODN (11730768_x_at) / Fold change /veh PODN (11730768_x_at) / RFU LINC00158 (11744669_a_at) / Fold change /veh LINC00158 (11744669_a_at) / RFU DUSP10 (11751237_a_at) / Fold change /veh DUSP10 (11751237_a_at) / RFU ID3 (11757404_x_at) / Fold change /veh ID3 (11757404_x_at) / RFU PLEKHG5 (11737974_s_at) / Fold change /veh PLEKHG5 (11737974_s_at) / RFU LRRC4B (11730491_at) / Fold change /veh LRRC4B (11730491_at) / RFU GIMAP4 (11747438_a_at) / Fold change /veh GIMAP4 (11747438_a_at) / RFU KRT8 (11758183_x_at) / Fold change /veh KRT8 (11758183_x_at) / RFU CNN1 (11734310_a_at) / Fold change /veh CNN1 (11734310_a_at) / RFU VPS37D (11726825_at) / Fold change /veh VPS37D (11726825_at) / RFU C10orf10 (11716522_x_at) / Fold change /veh C10orf10 (11716522_x_at) / RFU KIR2DL2 /// KIR2DL4 /// KIR2DL5A /// KIR2DL5B /// KIR2DS1 /// KIR2DS2 /// KIR2DS3 /// KIR2DS4 /// KIR3DL3 /// KIR3DL3 /// KIR3DS1 (11738374_at) / Fold change /veh KIR2DL2 /// KIR2DL4 /// KIR2DL5A /// KIR2DL5B /// KIR2DS1 /// KIR2DS2 /// KIR2DS3 /// KIR2DS4 /// KIR3DL3 /// KIR3DL3 /// KIR3DS1 (11738374_at) / RFU C1QL1 (11718748_at) / Fold change /veh C1QL1 (11718748_at) / RFU TMPRSS4 (11747572_a_at) / Fold change /veh TMPRSS4 (11747572_a_at) / RFU HAMP (11756126_x_at) / Fold change /veh HAMP (11756126_x_at) / RFU RNFT2 (11725882_a_at) / Fold change /veh RNFT2 (11725882_a_at) / RFU NR4A2 (11747474_a_at) / Fold change /veh NR4A2 (11747474_a_at) / RFU ABCC12 (11746883_a_at) / Fold change /veh ABCC12 (11746883_a_at) / RFU TMEM136 (11760407_x_at) / Fold change /veh TMEM136 (11760407_x_at) / RFU CLDN22 /// WWC2 (11732394_at) / Fold change /veh CLDN22 /// WWC2 (11732394_at) / RFU HLA-DPB1 (11760878_x_at) / Fold change /veh HLA-DPB1 (11760878_x_at) / RFU SPINT1 (11716480_a_at) / Fold change /veh SPINT1 (11716480_a_at) / RFU GAP43 (11754022_s_at) / Fold change /veh GAP43 (11754022_s_at) / RFU A4GNT (11735810_at) / Fold change /veh A4GNT (11735810_at) / RFU PRB3 (11715151_x_at) / Fold change /veh PRB3 (11715151_x_at) / RFU TUBB4B (11761932_at) / Fold change /veh TUBB4B (11761932_at) / RFU CAPN14 (11732068_a_at) / Fold change /veh CAPN14 (11732068_a_at) / RFU TMCC2 (11721928_a_at) / Fold change /veh TMCC2 (11721928_a_at) / RFU IRGQ (11745062_a_at) / Fold change /veh IRGQ (11745062_a_at) / RFU FAM174B (11720279_a_at) / Fold change /veh FAM174B (11720279_a_at) / RFU TMPRSS4 (11748680_a_at) / Fold change /veh TMPRSS4 (11748680_a_at) / RFU FAM212B (11763350_a_at) / Fold change /veh FAM212B (11763350_a_at) / RFU PLEKHG5 (11743358_a_at) / Fold change /veh PLEKHG5 (11743358_a_at) / RFU ZSCAN30 (11745921_a_at) / Fold change /veh ZSCAN30 (11745921_a_at) / RFU CMKLR1 (11741424_a_at) / Fold change /veh CMKLR1 (11741424_a_at) / RFU LOC101060620 /// MAPK8IP1 (11723275_at) / Fold change /veh LOC101060620 /// MAPK8IP1 (11723275_at) / RFU SPTSSB (11747773_x_at) / Fold change /veh SPTSSB (11747773_x_at) / RFU PRSS12 (11739890_at) / Fold change /veh PRSS12 (11739890_at) / RFU BIN1 (11741810_x_at) / Fold change /veh BIN1 (11741810_x_at) / RFU WNT11 (11732464_a_at) / Fold change /veh WNT11 (11732464_a_at) / RFU C10orf10 (11716521_a_at) / Fold change /veh C10orf10 (11716521_a_at) / RFU C5orf56 (11738089_at) / Fold change /veh C5orf56 (11738089_at) / RFU CYB561 (11721691_x_at) / Fold change /veh CYB561 (11721691_x_at) / RFU ANKRD19P (11752326_a_at) / Fold change /veh ANKRD19P (11752326_a_at) / RFU OR2T12 /// OR2T33 /// OR2T8 (11738714_s_at) / Fold change /veh OR2T12 /// OR2T33 /// OR2T8 (11738714_s_at) / RFU VCAN (11748164_a_at) / Fold change /veh VCAN (11748164_a_at) / RFU JSRP1 (11732532_at) / Fold change /veh JSRP1 (11732532_at) / RFU KRTAP10-11 (11738290_x_at) / Fold change /veh KRTAP10-11 (11738290_x_at) / RFU MYO3A (11730013_a_at) / Fold change /veh MYO3A (11730013_a_at) / RFU EBF3 (11725865_a_at) / Fold change /veh EBF3 (11725865_a_at) / RFU CAMK2N1 (11719241_x_at) / Fold change /veh CAMK2N1 (11719241_x_at) / RFU C5orf56 (11738088_a_at) / Fold change /veh C5orf56 (11738088_a_at) / RFU OLFML3 (11715873_a_at) / Fold change /veh OLFML3 (11715873_a_at) / RFU LOC100653217 /// NTM (11731650_a_at) / Fold change /veh LOC100653217 /// NTM (11731650_a_at) / RFU MAPK11 (11762145_a_at) / Fold change /veh MAPK11 (11762145_a_at) / RFU FIZ1 (11724087_x_at) / Fold change /veh FIZ1 (11724087_x_at) / RFU OASL (11726364_x_at) / Fold change /veh OASL (11726364_x_at) / RFU SOX15 (11748057_x_at) / Fold change /veh SOX15 (11748057_x_at) / RFU CD79A (11719716_a_at) / Fold change /veh CD79A (11719716_a_at) / RFU HIST1H1D (11736915_at) / Fold change /veh HIST1H1D (11736915_at) / RFU CASKIN2 (11723855_a_at) / Fold change /veh CASKIN2 (11723855_a_at) / RFU LOC730098 (11760151_x_at) / Fold change /veh LOC730098 (11760151_x_at) / RFU OR4N2 (11742367_at) / Fold change /veh OR4N2 (11742367_at) / RFU PRRT2 (11749266_a_at) / Fold change /veh PRRT2 (11749266_a_at) / RFU SNX32 (11753110_a_at) / Fold change /veh SNX32 (11753110_a_at) / RFU CDHR5 (11726645_a_at) / Fold change /veh CDHR5 (11726645_a_at) / RFU RCAN1 (11760418_a_at) / Fold change /veh RCAN1 (11760418_a_at) / RFU FAM167A (11723789_a_at) / Fold change /veh FAM167A (11723789_a_at) / RFU FAM26E (11764081_at) / Fold change /veh FAM26E (11764081_at) / RFU ISYNA1 (11749810_s_at) / Fold change /veh ISYNA1 (11749810_s_at) / RFU ACY1 (11761880_at) / Fold change /veh ACY1 (11761880_at) / RFU 11764098_at / Fold change /veh 11764098_at / RFU SAMD14 (11745864_x_at) / Fold change /veh SAMD14 (11745864_x_at) / RFU NPB (11741838_a_at) / Fold change /veh NPB (11741838_a_at) / RFU TMPRSS6 (11731388_a_at) / Fold change /veh TMPRSS6 (11731388_a_at) / RFU KRTAP10-2 (11738614_at) / Fold change /veh KRTAP10-2 (11738614_at) / RFU ARHGAP8 /// PRR5-ARHGAP8 (11727945_x_at) / Fold change /veh ARHGAP8 /// PRR5-ARHGAP8 (11727945_x_at) / RFU KRTAP5-7 /// NADSYN1 (11734609_at) / Fold change /veh KRTAP5-7 /// NADSYN1 (11734609_at) / RFU RASL12 (11751679_a_at) / Fold change /veh RASL12 (11751679_a_at) / RFU CDKN2B (11736163_a_at) / Fold change /veh CDKN2B (11736163_a_at) / RFU PRF1 (11729649_at) / Fold change /veh PRF1 (11729649_at) / RFU, ZNF638 /// ZNF638-IT1 / Fold change vs veh, ZNF638 /// ZNF638-IT1 / RFU, PANK3 / Fold change vs veh, PANK3 / RFU, SH3YL1 / Fold change vs veh, SH3YL1 / RFU, ZEB2 / Fold change vs veh, ZEB2 / RFU, NRIP1 / Fold change vs veh, NRIP1 / RFU, PTTG1IP / Fold change vs veh, PTTG1IP / RFU, CAPN2 / Fold change vs veh, CAPN2 / RFU, MED14 / Fold change vs veh, MED14 / RFU, SNORA58 / Fold change vs veh, SNORA58 / RFU, C1orf63 / Fold change vs veh, C1orf63 / RFU, LRRFIP1 / Fold change vs veh, LRRFIP1 / RFU, NDUFAF7 / Fold change vs veh, NDUFAF7 / RFU, SLC12A2 / Fold change vs veh, SLC12A2 / RFU, IBTK / Fold change vs veh, IBTK / RFU, ESF1 / Fold change vs veh, ESF1 / Fold change vs veh, TMEM50B / RFU, TAOK1 / Fold change vs veh, TAOK1 / RFU, ACBD3 / Fold change vs veh, ACBD3 / RFU, TMA16 / Fold change vs veh, TMA16 / RFU, RWDD3 / Fold change vs veh, RWDD3 / RFU, BCAT1 / Fold change vs veh, BCAT1 / RFU, EDEM3 / Fold change vs veh, EDEM3 / RFU, TMEM33 / Fold change vs veh, TMEM33 / RFU, WDR75 / Fold change vs veh, WDR75 / RFU, AHCTF1 / Fold change vs veh, AHCTF1 / RFU, TFRC / Fold change vs veh, TFRC / RFU, ZDHHC17 / Fold change vs veh, ZDHHC17 / RFU, NOM1 / Fold change vs veh, NOM1 / RFU, ARL8B / Fold change vs veh, ARL8B / RFU, ZBTB11 / Fold change vs veh, ZBTB11 / RFU, TAMM41 / Fold change vs veh, TAMM41 / RFU, KIAA1704 /// LOC100996395 / Fold change vs veh, KIAA1704 /// LOC100996395 / RFU, ING1 / Fold change vs veh, ING1 / RFU, TRMT61B / Fold change vs veh, TRMT61B / RFU, FUBP3 / Fold change vs veh, FUBP3 / RFU, TP53 / Fold change vs veh, TP53 / RFU, TNKS2 / Fold change vs veh, TNKS2 / RFU, ZFP14 / Fold change vs veh, ZFP14 / RFU, ACTR2 / Fold change vs veh, ACTR2 / RFU, PPP3R1 / Fold change vs veh, PPP3R1 / RFU, PIK3R1 / Fold change vs veh, PIK3R1 / RFU, HNRNPA1 / Fold change vs veh, HNRNPA1 / RFU, RNF170 / Fold change vs veh, RNF170 / RFU, ZNF28 / Fold change vs veh, ZNF28 / RFU, RNGTT / Fold change vs veh, RNGTT / RFU, OGT / Fold change vs veh, OGT / RFU, BRD1 / Fold change vs veh, BRD1 / RFU, MARS / Fold change vs veh, MARS / RFU, ZNF655 / Fold change vs veh, ZNF655 / RFU, FAHD1 / Fold change vs veh, FAHD1 / RFU, BDP1 / Fold change vs veh, BDP1 / RFU, LRRCC1 / Fold change vs veh, LRRCC1 / RFU, ARID1A / Fold change vs veh, ARID1A / RFU, ZNF146 / Fold change vs veh, ZNF146 / RFU, ZNF330 / Fold change vs veh, ZNF330 / RFU, GPN3 / Fold change vs veh, GPN3 / RFU, C9orf123 / Fold change vs veh, C9orf123 / RFU, N4BP2L2 / Fold change vs veh, N4BP2L2 / RFU, ARFIP1 / Fold change vs veh, ARFIP1 / RFU, FAM179B / Fold change vs veh, FAM179B / RFU, BCL10 / Fold change vs veh, BCL10 / RFU, UHRF1BP1L / Fold change vs veh, UHRF1BP1L / RFU, BET1 / Fold change vs veh, BET1 / RFU, CNOT2 / Fold change vs veh, CNOT2 / RFU, ZNF268 / Fold change vs veh, ZNF268 / Fold change vs veh, ZNF507 / RFU, DGCR2 / Fold change vs veh, DGCR2 / RFU, WDSUB1 / Fold change vs veh, WDSUB1 / Fold change vs veh, HSP90B1 /// MIR3652 / RFU, ADSS / Fold change vs veh, ADSS / RFU, GK / Fold change vs veh, GK / RFU, ZNF148 / Fold change vs veh, ZNF148 / RFU, TAF9 / Fold change vs veh, TAF9 / RFU, SLC1A5 / Fold change vs veh, SLC1A5 / RFU, SLMO2 / Fold change vs veh, SLMO2 / RFU, ABCC4 / Fold change vs veh, ABCC4 / RFU, LOC101060439 /// RAP1B / Fold change vs veh, LOC101060439 /// RAP1B / RFU, RFX7 / Fold change vs veh, RFX7 / RFU, GTPBP10 / Fold change vs veh, GTPBP10 / RFU, CNEP1R1 / Fold change vs veh, CNEP1R1 / RFU, BIVM-ERCC5 /// ERCC5 / Fold change vs veh, BIVM-ERCC5 /// ERCC5 / RFU, ILF3 / Fold change vs veh, ILF3 / RFU 11762660_at / Fold change /veh 11762660_at / RFU VCAN (11757783_s_at) / Fold change /veh VCAN (11757783_s_at) / RFU DDX43 (11728927_at) / Fold change /veh DDX43 (11728927_at) / RFU KRT8 (11758188_x_at) / Fold change /veh KRT8 (11758188_x_at) / RFU NKD1 (11759106_at) / Fold change /veh NKD1 (11759106_at) / RFU SRD5A1 (11742802_a_at) / Fold change /veh SRD5A1 (11742802_a_at) / RFU TPSAB1 /// TPSB2 (11721975_s_at) / Fold change /veh TPSAB1 /// TPSB2 (11721975_s_at) / RFU GSTM3 (11746129_a_at) / Fold change /veh GSTM3 (11746129_a_at) / RFU IL23R (11737362_x_at) / Fold change /veh IL23R (11737362_x_at) / RFU TMEM51 (11727254_a_at) / Fold change /veh TMEM51 (11727254_a_at) / RFU PIWIL2 (11732686_x_at) / Fold change /veh PIWIL2 (11732686_x_at) / RFU ORM1 (11744905_x_at) / Fold change /veh ORM1 (11744905_x_at) / RFU CCDC152 (11743942_at) / Fold change /veh CCDC152 (11743942_at) / RFU ECM1 (11717891_a_at) / Fold change /veh ECM1 (11717891_a_at) / RFU IL23R (11748794_a_at) / Fold change /veh IL23R (11748794_a_at) / RFU TNFAIP8L3 (11732012_x_at) / Fold change /veh TNFAIP8L3 (11732012_x_at) / RFU MBOAT4 (11741988_at) / Fold change /veh MBOAT4 (11741988_at) / RFU 11764193_at / Fold change /veh 11764193_at / RFU TMEM53 (11763286_at) / Fold change /veh TMEM53 (11763286_at) / RFU MAGEB2 (11727129_at) / Fold change /veh MAGEB2 (11727129_at) / RFU TMEM200A (11744735_a_at) / Fold change /veh TMEM200A (11744735_a_at) / RFU CCDC152 (11751479_a_at) / Fold change /veh CCDC152 (11751479_a_at) / RFU FAM211A (11726209_a_at) / Fold change /veh FAM211A (11726209_a_at) / RFU RGS16 (11746705_a_at) / Fold change /veh RGS16 (11746705_a_at) / RFU VCAN (11755009_s_at) / Fold change /veh VCAN (11755009_s_at) / RFU RHOB (11743442_s_at) / Fold change /veh RHOB (11743442_s_at) / RFU RGS16 (11720943_a_at) / Fold change /veh RGS16 (11720943_a_at) / RFU RGS16 (11720944_at) / Fold change /veh RGS16 (11720944_at) / RFU, VPS4B / Fold change vs veh, VPS4B / RFU, CREB1 / Fold change vs veh, CREB1 / RFU, DNAJC13 / Fold change vs veh, DNAJC13 / RFU, GNAQ / Fold change vs veh, GNAQ / RFU, CDK5R1 / Fold change vs veh, CDK5R1 / RFU, ZRANB3 / Fold change vs veh, ZRANB3 / RFU, CUL4A / Fold change vs veh, CUL4A / RFU, CCNY / Fold change vs veh, CCNY / RFU, UFL1 / Fold change vs veh, UFL1 / RFU, COG3 / Fold change vs veh, COG3 / RFU, DIAPH2 / Fold change vs veh, DIAPH2 / RFU, SKA2 / Fold change vs veh, SKA2 / RFU, AFF3 / Fold change vs veh, AFF3 / RFU, LMF1 / Fold change vs veh, LMF1 / RFU, IPO11 / Fold change vs veh, IPO11 / RFU, DFFB / Fold change vs veh, DFFB / RFU, FOXP1 / Fold change vs veh, FOXP1 / RFU, CARD8 / Fold change vs veh, CARD8 / RFU, STRN3 / Fold change vs veh, STRN3 / RFU, ADK / Fold change vs veh, ADK / RFU, RASSF2 / Fold change vs veh, RASSF2 / RFU, WIPF1 / Fold change vs veh, WIPF1 / RFU, LARP1B / Fold change vs veh, LARP1B / RFU, RASA1 / Fold change vs veh, RASA1 / RFU, RB1 / Fold change vs veh, RB1 / RFU, PPFIA1 / Fold change vs veh, PPFIA1 / RFU, MAT2A / Fold change vs veh, MAT2A / RFU, CCT5 / Fold change vs veh, CCT5 / RFU, WDR92 / Fold change vs veh, WDR92 / RFU, CUX1 / Fold change vs veh, CUX1 / RFU, TTC7A / Fold change vs veh, TTC7A / RFU, TMEM135 / Fold change vs veh, TMEM135 / RFU, DEPTOR / Fold change vs veh, DEPTOR / RFU, CPM / Fold change vs veh, CPM / RFU, DNAJB6 / Fold change vs veh, DNAJB6 / RFU, CACNA2D3 / Fold change vs veh, CACNA2D3 / RFU, DTX4 / Fold change vs veh, DTX4 / RFU, TFCP2 / Fold change vs veh, TFCP2 / RFU, GMCL1 /// GMCL1P1 / Fold change vs veh, GMCL1 /// GMCL1P1 / RFU, AEBP2 / Fold change vs veh, AEBP2 / RFU, SNHG1 /// SNORD22 /// SNORD25 /// SNORD26 /// SNORD27 /// SNORD28 /// SNORD29 /// SNORD31 / Fold change vs veh, SNHG1 /// SNORD22 /// SNORD25 /// SNORD26 /// SNORD27 /// SNORD28 /// SNORD29 /// SNORD31 / Fold change (Aza/veh), C12orf56 (ProbeSet 11735607_a_at) / Fold change (ACY-1035/veh), C12orf56 (ProbeSet 11735607_a_at) / Fold change (Aza/veh), FGFR1OP (ProbeSet 11751329_s_at) / Fold change (ACY-1035/veh), FGFR1OP (ProbeSet 11751329_s_at) / Fold change (Aza/veh), VPS36 (ProbeSet 11739960_a_at) / Fold change (ACY-1035/veh), VPS36 (ProbeSet 11739960_a_at) / RFU SYPL1 (11715823_x_at) / Fold change /veh SYPL1 (11715823_x_at) / RFU IGFBP7 (11715501_s_at) / Fold change /veh IGFBP7 (11715501_s_at) / RFU REEP3 (11722064_at) / Fold change /veh REEP3 (11722064_at) / RFU IGLL1 (11728026_x_at) / Fold change /veh IGLL1 (11728026_x_at): dose or concentration left out as unconfirmed
Settings: MV-4-11 cells, 48 hours

Nc1ncn([C@@H]2O[C@H](CO)[C@@H](O)[C@H]2O)c(=O)n1 [azacitidine]
Fold change /veh FAM174B (11720279_a_at): 1.12
